Experimental data taken from patent publication EP0652004B1, “Methods for treating resistant neoplasms” (ELI LILLY AND COMPANY, priority 1993, dated 1995).
≈ marks a conversion by molar mass, not a printed value. Read-outs that look alike come from different tables or passages of the source.

Legend:
HL60/ADR = assay: reversal of drug resistance to Adriamycin, in vitro cytotoxicity assay (3H-leucine incorporation); assay type: cell-based, human; details: change in IC50 of Adriamycin; test compound at maximum noncytotoxic concentration (Conc. µM: 12, 6, 3, 4)
Excerpt: (§1) The cells used to analyze the reversal of drug resistance are the human leukemia cell lines HL60/s, HL60/Vinc, and HL60/ADR. HL60/s cells are not selected for drug resistance and are therefore sensitive to drug treatment (McGrath, et al., "Mechanisms of Multidrug Resistance in HL60 Cells. Analysis of Resistance Associated Membrane Proteins and Levels of MDR Gene Expression, Biochemical Pharmacology, 38: 3611-3619, 1989.). HL60/Vinc tumor cells are selected for resistance to vincristine and express a high level of the multidrug resistance-related protein, P-glycoProtein. Id. HL60/ADR cells are selected for resistance to Adriamycin but contain no detectable levels of P-glycoProtein. Id.
(§2) The in vitro cytotoxicity assays are performed by suspending the target cells into Minimum Essential Eagle's Medium (MEM) containing 25% of the normal leucine concentration and 10% dialyzed fetal calf serum. 2x10^4 cells are seeded into each well of 96 well microtiter plates and are incubated overnight in 5% CO2 at 37°C. The agents to be tested for reversal activity are serially diluted (100 µM, 50 µM, ..., 0.2 µM) in media and added to the cells. 48 hours after adding the reversal agents to the target cells, 4 µCi of ^3H-leucine are added to each well and are incubated for an additional 16 hours at 37°C. The cells are harvested and the amount of ^3H-leucine incorporation is determined. The concentration of reversal agent required for 50% inhibition of ^3H-leucine incorporation (IC50) is calculated. Subsequent studies using reversal agents in the presence of cytotoxic drug (i.e., Adriamycin) utilize maximal concentrations of reversal agents that are not cytotoxic by themselves. The reversal of drug resistance by the various test compounds is accomplished by adding the maximum noncytotoxic concentration of the test compounds to log dilutions of Adriamycin (10, 1, 0.1, ... 0.001 µg/ml) and calculating the change in IC50 observed for Adriamycin against the HL60/s, HL60/Vinc, and HL60/ADR cell lines in the above described in vitro cytotoxicity assay.

HL60/S cells = assay: cytotoxicity of oncolytic agents against HL60/S cells; assay type: cell-based; details: Homo sapiens, HL-60; HL60/S cells (drug sensitive, no P-glycoProtein)
Description: as §2

HL60/Adr cells = assay: cytotoxicity of oncolytic agents against HL60/Adr cells; assay type: cell-based; details: Homo sapiens
Description: as §2

HL60/VINC = assay: reversal of drug resistance to Adriamycin, in vitro cytotoxicity assay (3H-leucine incorporation); assay type: cell-based, human; details: change in IC50 of Adriamycin; test compound at maximum noncytotoxic concentration (Conc. µM column: 12, 4)
Excerpt: as §1, §2

Structure (SMILES) | Reversal Factor HL60/ADR (HL60/ADR) | IC50 (HL60/S cells) | also measured
C[C@]12CC[C@@H]3c4ccc(O)cc4CC[C@H]3[C@@H]1CC[C@@H]2O [17∝ Estradiol] | 1 |  | 
COc1cccc2c1C(=O)c1c(O)c3c(c(O)c1C2=O)C[C@@](O)(C(=O)CO)C[C@@H]3O[C@H]1C[C@H](N)[C@H](O)[C@H](C)O1 [Adriamycin, Doxorubicin] |  | 0.011 µg/mL (≈ 0.0202 µM) | IC50 (HL60/Adr cells; HL60/ADR): 2.2 µg/mL (≈ 4.05 µM)
COc1cc([C@@H]2c3cc4c(cc3[C@@H](O[C@@H]3O[C@@H]5CO[C@@H](C)O[C@H]5[C@H](O)[C@H]3O)[C@H]3COC(=O)[C@H]23)OCO4)cc(OC)c1O [Etoposide] |  | 0.39 µg/mL (≈ 0.663 µM) | IC50 (HL60/Adr cells; HL60/Adr cells (resistant to doxorubicin, express P190), read-out: IC50): > 10 µg/mL
Cl.O=C(c1ccc(OCCN2CCCCC2)cc1)c1c(-c2ccc(O)cc2)sc2cc(O)ccc12 [Raloxifene HCL, raloxifene] | 7.1 |  | 
CC/C(=C(\c1ccccc1)c1ccc(OCCN(C)C)cc1)c1ccccc1 [Tamoxifen] | 1.4 |  | Reversal Factor HL60/VINC (HL60/VINC): 4.6
